Values of other authors as cited in patent US7709647B2, “Tetrahydroquinoline cannabinoid receptor modulators” (Bristol-Myers Squibb Company, priority 2005, dated 2010).

Assays:
[1] = chronic administration for two weeks
[2] = test system: human subjects; details: 16 week trial period, published Phase IIb data

| SMILES | body weight [1] | body weight [2] |
| --- | --- | --- |
| Cc1c(C(=O)NN2CCCCC2)nn(-c2ccc(Cl)cc2Cl)c1-c1ccc(I)cc1 [AM-251] | substantial body weight reduction |  |
| Cc1c(C(=O)NN2CCCCC2)nn(-c2ccc(Cl)cc2Cl)c1-c1ccc(Cl)cc1 [SR-141716] |  | dose-dependently reduced body weight |
